Measured values: ChEMBL document CHEMBL1201862, “PubChem BioAssay data set” (2004)
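Values below derive from 48-hour exposures of cells grown in 96-well plates, with endpoints linearly interpolated between the two concentrations bracketing the appropriate inhibition level. The concentration for 50% growth inhibition is given as GI50.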 Activity calls are given as the source filed them. Rule as the data show it: active = GI50 up to about 1.1 µM and inactive = higher.

Experiments:
Experiment in all cases: NCI tumour cell line growth inhibition, 48 h
[1] = tested on: NCI-H226
[2] = tested on: MDA-N
[3] = tested on: SNB-19
[4] = tested on: MDA-MB-435
[5] = tested on: NCI-H460
[6] = tested on: ACHN
[7] = tested on: SN12C
[8] = tested on: SF-295
[9] = tested on: SK-MEL-2
[10] = tested on: SK-MEL-28
[11] = tested on: OVCAR-8
[12] = tested on: COLO 205
[13] = tested on: HOP-92
[14] = tested on: UACC-257
[15] = tested on: RXF 393
[16] = tested on: SW-620
[17] = tested on: DU-145
[18] = tested on: SF-268
[19] = tested on: K562
[20] = tested on: HL-60
[21] = tested on: PC-3
[22] = tested on: Hs-578T
[23] = tested on: Malme-3M
[24] = tested on: MCF7
[25] = tested on: HOP-62
[26] = tested on: UO-31
[27] = tested on: U-251
[28] = tested on: MOLT-4
[29] = tested on: KM12
[30] = tested on: T47D
[31] = tested on: NCI/ADR-RES
[32] = tested on: HCC 2998
[33] = tested on: CCRF-CEM
[34] = tested on: SK-MEL-5
[35] = tested on: RPMI-8226
[36] = tested on: TK-10
[37] = tested on: OVCAR-5
[38] = tested on: 786-0
[39] = tested on: M14
[40] = tested on: EKVX
[41] = tested on: SNB-75
[42] = tested on: CAKI-1
[43] = tested on: SF-539
[44] = tested on: BT-549
[45] = tested on: SK-OV-3
[46] = tested on: A498
[47] = tested on: NCI-H522
[48] = tested on: HT-29
[49] = tested on: IGROV-1
[50] = tested on: OVCAR-4
[51] = tested on: A549
[52] = tested on: MDA-MB-231
[53] = tested on: HCT-116
[54] = tested on: SR
[55] = tested on: OVCAR-3
[56] = tested on: HCT-15
[57] = tested on: UACC-62
[58] = tested on: NCI-H23
[59] = tested on: LOX IMVI

In the case of `CCOC(=O)C(NC(=O)CC)(Nc1ccc(F)c(Cl)c1)C(F)(F)F` (stereo not given), the GI50 [1] is reported as > 100 µM (inactive), the GI50 [2] is reported as > 100 µM (inactive) and the GI50 [3] is reported as > 100 µM (inactive). The GI50 [4] was > 92.9 µM (inactive), the GI50 [5] was > 100 µM (inactive) and the GI50 [6] was > 55.8 µM (inactive). The GI50 [7] was > 100 µM (inactive), the GI50 [8] was > 76.4 µM (inactive) and the GI50 [9] was > 70 µM (inactive). The GI50 [10] was > 100 µM (inactive), the GI50 [11] was > 100 µM (inactive) and the GI50 [12] was > 100 µM (inactive). The GI50 [13] was > 100 µM (inactive), the GI50 [14] was > 100 µM (inactive) and the GI50 [15] was > 100 µM (inactive). The GI50 [16] was > 100 µM (inactive), the GI50 [17] was > 100 µM (inactive) and the GI50 [18] was > 100 µM (inactive). The GI50 [19] was > 29.2 µM (inactive), the GI50 [20] was > 36.2 µM (inactive) and the GI50 [21] was > 64.1 µM (inactive). For the same molecule, the GI50 [22] was > 100 µM (inactive), the GI50 [23] was > 100 µM (inactive) and the GI50 [24] was > 100 µM (inactive). For the same molecule, the GI50 [25] was > 100 µM (inactive), the GI50 [26] was > 100 µM (inactive) and the GI50 [27] was > 100 µM (inactive). For the same molecule, the GI50 [28] was > 74.8 µM (inactive), the GI50 [29] was 35.8 µM (inactive) and the GI50 [30] was > 100 µM (inactive). The GI50 [31] was 78.2 µM (inactive), the GI50 [32] was > 100 µM (inactive) and the GI50 [33] was 35.6 µM (inactive). The GI50 [34] was > 67.6 µM (inactive), the GI50 [35] was > 63.2 µM (inactive) and the GI50 [36] was > 100 µM (inactive). For the same molecule, the GI50 [37] was > 100 µM (inactive), the GI50 [38] was > 100 µM (inactive) and the GI50 [39] was 40.5 µM (inactive). The GI50 [40] was > 100 µM (inactive), the GI50 [41] was > 100 µM (inactive) and the GI50 [42] was > 100 µM (inactive). The GI50 [43] was > 100 µM (inactive), the GI50 [44] was > 100 µM (inactive) and the GI50 [45] was > 100 µM (inactive). The GI50 [46] was > 100 µM (inactive), the GI50 [47] was > 100 µM (inactive) and the GI50 [48] was > 100 µM (inactive). The GI50 [49] was > 100 µM (inactive), the GI50 [50] was > 100 µM (inactive) and the GI50 [51] was > 100 µM (inactive). For the same molecule, the GI50 [52] was > 100 µM (inactive), the GI50 [53] was > 100 µM (inactive) and the GI50 [54] was > 45.6 µM (inactive). For the same molecule, the GI50 [55] was > 100 µM (inactive), the GI50 [56] was greater than 83.4 µM and the GI50 [57] was 34.4 µM (inactive).

With `NC(=S)N/N=C\c1nccc2ccccc12` the GI50 [1] was 0.184 µM (active), the GI50 [2] was 0.429 µM (active) and the GI50 [3] was 0.531 µM (active). For the same molecule, the GI50 [4] was 0.388 µM (active), the GI50 [5] was 0.267 µM (active) and the GI50 [6] was 0.0501 µM (active). The GI50 [7] was 0.262 µM (active), the GI50 [8] was 0.187 µM (active) and the GI50 [9] was 6 µM (inactive). The GI50 [10] was 0.36 µM (active), the GI50 [11] was 0.209 µM (active) and the GI50 [12] was 0.302 µM (active). The GI50 [13] was 0.264 µM (active), the GI50 [14] was 1.42 µM (inactive) and the GI50 [15] was 0.357 µM (active). For the same molecule, the GI50 [16] was 0.561 µM (active), the GI50 [17] was 0.404 µM (active) and the GI50 [18] was 0.216 µM (active). For the same molecule, the GI50 [19] was 0.731 µM (active), the GI50 [20] was 0.327 µM (active) and the GI50 [21] was 0.685 µM (active). The GI50 [22] was 10.7 µM (inactive), the GI50 [23] was 1.73 µM (inactive) and the GI50 [24] was 0.253 µM (active). The GI50 [25] was 0.321 µM (active), the GI50 [26] was 0.36 µM (active) and the GI50 [27] was 0.281 µM (active). For the same molecule, the GI50 [28] was 0.226 µM (active), the GI50 [29] was 0.885 µM (active) and the GI50 [30] was 2.69 µM (inactive). For the same molecule, the GI50 [31] was 0.285 µM (active), the GI50 [32] was 3.04 µM (inactive) and the GI50 [33] was 0.27 µM (active). For the same molecule, the GI50 [34] was 0.143 µM (active), the GI50 [35] was 0.267 µM (active) and the GI50 [36] was 0.551 µM (active). For the same molecule, the GI50 [37] was 0.264 µM (active), the GI50 [38] was 0.29 µM (active) and the GI50 [39] was 0.383 µM (active). For the same molecule, the GI50 [40] was 0.302 µM (active), the GI50 [42] was 0.33 µM (active) and the GI50 [43] was 0.155 µM (active). For the same molecule, the GI50 [44] was 0.424 µM (active), the GI50 [45] was 0.2 µM (active) and the GI50 [46] was 0.21 µM (active). The GI50 [58] was 0.314 µM (active), the GI50 [47] was 0.908 µM (active) and the GI50 [48] was 0.485 µM (active). The GI50 [49] was 0.42 µM (active), the GI50 [50] was 0.309 µM (active) and the GI50 [51] was 0.413 µM (active). For the same molecule, the GI50 [52] was 0.46 µM (active), the GI50 [53] was 0.44 µM (active) and the GI50 [54] was 0.126 µM (active). For the same molecule, the GI50 [59] was 0.324 µM (active), the GI50 [55] was 0.281 µM (active) and the GI50 [56] was 0.369 µM. For the same molecule, the GI50 [57] was 0.136 µM (active).
